Assay results as given in article PMC3265452 (PLoS Neglected Tropical Diseases, 2012).
Structures can show the parent of a compound that is named as a salt.

These compounds were tested against AaDOP2 (Aedes aegypti, UniProt H6D5H2) (assay: AaDOP2 antagonist screen of the LOPAC1280 library (HEK-CRELuc-Aadop2 cells, luminescence)). Settings: not given.
Format: cell-based

AaDOP2, sequence (H6D5H2 1-476): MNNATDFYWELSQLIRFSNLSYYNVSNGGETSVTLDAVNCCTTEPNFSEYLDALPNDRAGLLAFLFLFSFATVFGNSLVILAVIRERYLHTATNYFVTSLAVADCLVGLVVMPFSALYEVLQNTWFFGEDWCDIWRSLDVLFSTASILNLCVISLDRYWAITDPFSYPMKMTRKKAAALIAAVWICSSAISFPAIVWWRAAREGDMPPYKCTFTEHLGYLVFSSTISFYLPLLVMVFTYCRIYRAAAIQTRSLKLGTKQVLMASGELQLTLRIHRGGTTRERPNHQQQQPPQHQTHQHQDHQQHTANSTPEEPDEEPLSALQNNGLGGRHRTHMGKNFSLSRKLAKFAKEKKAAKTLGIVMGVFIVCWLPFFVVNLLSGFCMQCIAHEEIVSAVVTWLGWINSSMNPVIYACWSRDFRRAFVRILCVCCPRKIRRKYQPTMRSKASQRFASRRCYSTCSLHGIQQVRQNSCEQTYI

Row | SMILES | Compound effect (percent receptor signaling in presence of test compound, relative lux units relative to the SCH23390 control) | % of the SCH23390 effect (percent inhibition of receptor response relative to the SCH23390 control)
1 | CC(C)NC(C)Cc1ccc(I)cc1 (stereo not drawn) [Compound 670, Iofetamine hydrochloride] | 90 | 
2 | CN(C(=O)Cc1ccc(Cl)c(Cl)c1)C(CN1CCCC1)c1cccc(OCC(=O)O)c1.Cl (stereo not drawn) [Compound 671, ICI 204,448 hydrochloride] | 97 | 
3 | N=C(N)SCCc1cnc[nH]1 [Compound 673, Imetit dihydrobromide] | 91 | 
4 | Oc1cccc2c(O)nccc12 [Compound 674, 1,5-Isoquinolinediol] | 92 | 
5 | CNC(=O)[C@H]1O[C@@H](n2cnc3c(NCc4cccc(I)c4)ncnc32)[C@H](O)[C@@H]1O [Compound 676, IB-MECA] | 105 | 
6 | COc1ccc2c(c1)c(CC(=O)N1CCOCC1)c(C)n2C(=O)c1ccc(Cl)cc1 [Compound 677, Indomethacin morpholinylamide] | 89 | 
7 | Cl.Fc1ccc(C(OCCCc2c[nH]cn2)c2ccc(F)cc2)cc1 [Compound 678, 3-(1H-Imidazol-4-yl)propyl di(p-fluorophenyl)methyl ether hydrochloride] | 52 | 
8 | O=C(O)C1CCNCC1 [Compound 679, Isonipecotic acid] | 94 | 
9 | CCCn1c(C)c(C(=O)c2cccc3ccccc23)c2ccccc21 [Compound 680, JWH-015] | 73 | 
10 | Cc1ccc2c(c1)C(N1CCN(C)CC1)=Nc1cccnc1N2 [Compound 681, JL-18] | 2 | 98%
11 | C=C(C)[C@H]1CN[C@H](C(=O)O)[C@H]1CC(=O)O [Compound 682, Kainic acid] | 98 | 
12 | CC(=O)N1CCN(c2ccc(OCC3COC(Cn4ccnc4)(c4ccc(Cl)cc4Cl)O3)cc2)CC1 (stereo not drawn) [Compound 683, Ketoconazole] | 85 | 
13 | CC(C(=O)O)c1cccc(C(=O)c2ccccc2)c1 (stereo not drawn) [Compound 685, Ketoprofen] | 101 | 
14 | CCCC(=O)NCCc1c2n(c3ccc(OC)cc13)CCCc1ccccc1-2 [Compound 686, K 185] | 80 | 
15 | CN1CCC(=C2c3ccccc3CC(=O)c3sccc32)CC1 [Compound 687, Ketotifen fumarate] | 4 | 
16 | O=C(O)c1cc(=O)c2ccccc2[nH]1 [Compound 688, Kynurenic acid] | 99 | 
17 | O=C1Cc2c([nH]c3ccc(Br)cc23)-c2ccccc2N1 [Compound 689, Kenpaullone] | 17 | 
18 | CCN1C[C@]2(C)CC[C@H](O)[C@]34C1[C@@H](C[C@H]23)[C@@]1(O)C[C@H](OC)[C@H]2C[C@@H]4[C@@H]1[C@H]2O [Compound 690, Karakoline] | 101 | 
19 | O=c1[nH]c2cc(Cl)ccc2c(O)c1-c1cccc(Oc2ccccc2)c1 [Compound 691, L-701,324] | 90 | 
20 | CC(C(=O)O)c1ccc(CC2CCCC2=O)cc1 (stereo not drawn) [Compound 692, loxoprofen] | 92 | 
21 | CC(CCc1ccccc1)NCC(O)c1ccc(O)c(C(N)=O)c1 (stereo not drawn) [Compound 693, Labetalol hydrochloride] | 83 | 
22 | CCCCOC(=O)NS(=O)(=O)c1sc(CC(C)C)cc1-c1ccc(Cn2c(CC)nc3c(C)cc(C)nc32)cc1 [Compound 694, L-162,313] | 99 | 

Row | SMILES | Compound effect (percent receptor signaling in presence of test compound, relative lux units relative to the SCH23390 control) | % of the SCH23390 effect (percent inhibition of receptor response relative to the SCH23390 control)
23 | CC[N+](C)(CC)CC(=O)Nc1c(C)cccc1C.[Cl-] [Compound 695, Lidocaine N-methyl hydrochloride] | 92 | 
24 | CC1(C)CCC2=C(O1)c1ccccc1C(=O)C2=O [Compound 696, beta-Lapachone] | 14 | 
25 | O=S1(=O)N(CCN2CC=C(c3c[nH]c4cc(F)ccc34)CC2)c2cccc3c2N1CCC3 [Compound 697, LY-367,265] | 29 | 
26 | Cc1ccccc1N1CCN(S(=O)(=O)C[C@]23CC[C@H](C[C@@H]2NC(=O)[C@@H](N)CCS(C)(=O)=O)C3(C)C)CC1 [Compound 699, L-368,899] | 94 | 
27 | CCn1cc(C(=O)O)c(=O)c2cc(F)c(N3CCNC(C)C3)c(F)c21 (stereo not drawn) [Compound 700, Lomefloxacin hydrochloride] | 90 | 
28 | Nc1nnc(-c2cccc(Cl)c2Cl)c(N)n1 [Compound 701, Lamotrigine] | 87 | 
29 | CN1[C@@H](CC(=O)c2ccccc2)CCC[C@H]1C[C@H](O)c1ccccc1.Cl [Compound 702, alpha-Lobeline hydrochloride] | 89 | 
30 | CN(C)C(=O)C(CCN1CCC(O)(c2ccc(Cl)cc2)CC1)(c1ccccc1)c1ccccc1 [Compound 703, Loperamide hydrochloride] | 83 | 
31 | O=C(O)c1nn(Cc2ccc(Cl)cc2Cl)c2ccccc12 [Compound 704, Lonidamine] | 90 | 
32 | Cc1oncc1C(=O)Nc1ccc(C(F)(F)F)cc1 [Compound 705, Leflunomide] | 97 | 
33 | CN1CCc2ccccc2Cc2[nH]c3ccccc3c2CC1 [Compound 710, LE 300] | 1 | 99%
34 | Cc1c(OCC(F)(F)F)ccnc1C[S+]([O-])c1nc2ccccc2[nH]1 (stereo not drawn) [Compound 711, Lansoprazole] | 91 | 
35 | Cl.c1ccc(CN2CCC3(CCCc4ccccc43)CC2)cc1 [Compound 712, L-687,384 hydrochloride] | 87 | 
36 | C/C(O)=C(\C#N)C(=O)Nc1cc(Br)ccc1Br [Compound 713, LFM-A13] | 98 | 
37 | O=c1cc(-c2ccc(O)c(O)c2)oc2cc(O)cc(O)c12 [Compound 714, Luteolin] | 87 | 
38 | Cc1c(CC(C)(C)C(=O)O)n(Cc2ccc(Cl)cc2)c2ccc(F)cc12 [Compound 715, L-655,240] | 73 | 
39 | CCOC(=O)N1CCC(=C2c3ccc(Cl)cc3CCc3cccnc32)CC1 [Compound 716, Loratadine] | 88 | 
40 | Cl.c1ccc([C@H]2CN3CCSC3=N2)cc1 [Compound 717, (-)-Tetramisole hydrochloride] | 90 | 
41 | CCOC(=O)c1ncn2c1[C@@H]1CCCN1C(=O)c1cc(OC)ccc1-2 [Compound 718, L-655,708] | 90 | 
42 | Cl.O=c1cc(N2CCOCC2)oc2c(-c3ccccc3)cccc12 [Compound 719, LY-294,002 hydrochloride] | 53 | 
43 | CN1CCN(C2=Nc3ccccc3Oc3ccc(Cl)cc32)CC1 [Compound 720, Loxapine succinate] | 3 | 
44 | CCCCCN(CCCCC)C(=O)C(CCC(=O)O)NC(=O)c1ccc(Cl)c(Cl)c1 (stereo not drawn) [Compound 722, Lorglumide sodium] | 122 | 

Same assay, conditions: 10 µM compound, 300 nM dopamine, 2 hr

Row | SMILES | % of the SCH23390 effect (percent inhibition of receptor response relative to the SCH23390 control)
45 | CC1(C)C(=O)N(CCN2CCC(C(=O)c3ccc(F)cc3)CC2)c2ccccc21.Cl [Compound 698, LY-310,762 hydrochloride] | 81%

Same assay, conditions: 10 µM compound, 300 nM dopamine, 2 hr; hit = compound effect <20

Row | SMILES | Compound effect (percent receptor signaling in presence of test compound, relative lux units relative to the SCH23390 control)
46 | Cc1ccc(OCC(O)C(C)NC(C)C)c2c1CCC2.Cl (stereo not drawn) [Compound 672, ICI 118,551 hydrochloride] | 92%
47 | CCN1CCC[C@H]1CNC(=O)c1c(OC)ccc(I)c1O [Compound 675, S(-)-IBZM] | 85%
48 | NC(CO)(CO)CO.O=C(c1ccccc1)c1ccc2n1CCC2C(=O)O (stereo not drawn) [Compound 684, Ketorolac tris salt] | 98%
49 | CC1(C)C(=O)N(CCN2CCC(C(=O)c3ccc(F)cc3)CC2)c2ccccc21.Cl [Compound 698, LY-310,762 hydrochloride] | 19%
50 | CC(O)C(C)OC(=O)[C@@H]1C[C@@H]2c3cccc4c3c(cn4C(C)C)C[C@H]2N(C)C1.O=C(O)/C=C\C(=O)O (stereo partly drawn) [Compound 721, LY-53,857 maleate] | 73%
51 | CN1C2CCC1CC(NC(=O)c1nn(C)c3ccccc13)C2.O=C(O)/C=C\C(=O)O (stereo not drawn) [Compound 723, LY-278,584 maleate] | 92%

Same assay, conditions: read-out: % of the SCH23390 effect (percent inhibition of receptor response relative to the SCH23390 control)

Row | SMILES | inhibition at 10 µM
52 | CN1CCC(=C2c3ccccc3CC(=O)c3sccc32)CC1 [Compound 687, Ketotifen fumarate] | 96%
53 | O=C1Cc2c([nH]c3ccc(Br)cc23)-c2ccccc2N1 [Compound 689, Kenpaullone] | 83%
54 | CC1(C)CCC2=C(O1)c1ccccc1C(=O)C2=O [Compound 696, beta-Lapachone] | 86%
55 | CN1CCN(C2=Nc3ccccc3Oc3ccc(Cl)cc32)CC1 [Compound 720, Loxapine succinate] | 97%
